Tests used:
[1] = molecular target: T1, Bovine PACAP receptor protein (Bos taurus, UniProt Q29627); assay: Intracellular cyclic AMP production of bovine PACAP receptor cDNA-expressed CHO cells; format: cell-based; details: 37° C., 30 minutes, 0.2 mM 3-isobutyl-1-methylxanthine, FIG. 36
T1 construct: The complete primary structure of bovine PACAP receptor protein based on pBPR-T was deduced; expressed in transfected cells; host or cells: CHO cells, pBPR-T in pRc/CMV, G-418 selected
T1 sequence (Q29627 38-513): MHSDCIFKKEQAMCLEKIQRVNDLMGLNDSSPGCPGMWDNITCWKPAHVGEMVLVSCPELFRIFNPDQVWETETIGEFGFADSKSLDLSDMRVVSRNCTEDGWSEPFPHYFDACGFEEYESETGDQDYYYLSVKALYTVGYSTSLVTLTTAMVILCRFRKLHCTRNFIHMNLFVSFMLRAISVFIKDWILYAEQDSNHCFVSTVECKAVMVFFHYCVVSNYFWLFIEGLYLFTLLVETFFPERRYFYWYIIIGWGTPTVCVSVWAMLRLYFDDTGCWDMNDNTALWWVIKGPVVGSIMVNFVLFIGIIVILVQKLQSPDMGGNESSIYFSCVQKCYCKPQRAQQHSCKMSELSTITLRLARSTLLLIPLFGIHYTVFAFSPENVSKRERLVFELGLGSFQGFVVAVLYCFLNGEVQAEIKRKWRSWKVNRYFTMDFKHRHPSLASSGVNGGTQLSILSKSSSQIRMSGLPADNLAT
Experimental: Three days after the transformants (CHO cells) were plated on a 24-well plate, the cells were washed with Hank's buffer (composition: 8 g/l NaCl, 0.4 g/l KCl, 0.06 g/l Na2HPO4, 1.0 g/l glucose, 0.2 g/l MgSO4, 0.14 g/l CaCl2 and 0.35 g/l NaHCO3) supplemented with 0.05% BSA, and treated in the presence of 0.2 mM 3-isobutyl-1-methylxanthine at 37° C. for 1 hour. […] After the cells were washed with the above-mentioned Hank's buffer supplemented with 0.05% BSA, intracellular cyclic AMP was extracted by the use of 500 μl of Hank's buffer and 100 μl of 20% perchloric acid, and neutralized with 1.5 M KOH. The amount of cyclic AMP was assayed with a cAMP oxygen immunoassay system (BIOTRAK Amersham).

[2] = molecular target: T2, human PACAP receptor protein (Homo sapiens, UniProt P41586); assay: Intracellular cyclic AMP of human PACAP receptor protein-expressed CHO-K1 cells; format: cell-based; details: 37° C., 30 minutes, 0.2 mM 3-isobutyl-1-methylxanthine, FIG. 48
T2 construct: expressed in transfected cells; host or cells: CHO-K1 cells (ICN), pTS849 (pRc/CMV), G-418 selected
T2 sequence (P41586 21-468): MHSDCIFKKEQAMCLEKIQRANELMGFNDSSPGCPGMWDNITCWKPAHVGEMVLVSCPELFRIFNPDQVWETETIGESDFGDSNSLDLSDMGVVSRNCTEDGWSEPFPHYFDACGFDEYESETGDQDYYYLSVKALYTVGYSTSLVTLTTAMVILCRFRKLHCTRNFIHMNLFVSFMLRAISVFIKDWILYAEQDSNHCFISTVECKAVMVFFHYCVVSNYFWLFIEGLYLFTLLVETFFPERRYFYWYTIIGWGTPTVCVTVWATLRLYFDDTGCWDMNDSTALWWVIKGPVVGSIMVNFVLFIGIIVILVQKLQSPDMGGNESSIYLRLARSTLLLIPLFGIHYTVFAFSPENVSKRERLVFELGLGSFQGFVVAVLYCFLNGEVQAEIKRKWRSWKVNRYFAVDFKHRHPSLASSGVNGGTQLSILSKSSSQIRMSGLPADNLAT
Experimental: After washing twice with Hank's buffer containing the culture buffer, 10 mM HEPES and 0.05% BSA, the CHO-K1 cells were cultivated in the above-mentioned buffer supplemented with 0.2 mM 3-isobutyl-1-methylxanthine at 37° C. for 60 minutes. […] After absorption of the buffer, the cells were washed twice with the culture buffer. Then, cAMP was extracted from the cells with 20% perchloric acid. After transfer to a 1.5-ml Eppendorf tube, the extract was centrifuged with a Tomy microcentrifuge at 12,000 rpm for 5 minutes, and the supernatant was neutralized with 1.5 N KOH/60 mM HEPES to prepare a cell eluted solution. The concentration of cyclic AMP was determined by the acetylation method of a cAMP assay system (Amersham). Under these determination conditions, when nothing was added, the amount of intracellular CAMP was 0.7 pmole/well.

[3] = molecular target: T3, purified bovine PACAP receptor protein (Bos taurus, UniProt Q29627); assay: Competitive binding experiment for the purified PACAP receptor protein with [125I]PACAP27; details: vs 100 pM [125I]PACAP27, FIG. 31
T3 construct: from tissue; host or cells: bovine cerebrum
T3 sequence (Q29627 38-513): T1 sequence (Q29627 38-513)
Experimental: (§1) The test sample (membrane fraction or solubilized membrane protein fraction) was appropriately diluted with buffer D (20 mM Tris, 5 mM magnesium chloride, 0.1% BSA and 0.05% digitonin, pH 7.4). […] To 0.1 ml of this reaction solution, 1.5 ml of buffer E (0.1% BSA, 0.05% CHAPS, 20 mM Tris and 5 mM magnesium chloride, pH 7.4) cooled with ice was added, and immediately, the mixed solution is filtered through a glass fiber filter. […] Results of the saturation binding experiment were subjected to Scatchard plot analysis to determine the dissociation constant and the maximum binding.
Analysis results obtained by polyacrylamide electrophoresis for the final purified sample in the presence of sodium dodecylsulfate are shown in FIG. 28. […] This protein having a molecular weight of about 57,000 is the PACAP receptor protein occurring in the bovine cerebrums.

[4] = molecular target: T1, Bovine PACAP receptor protein; assay: Competitive binding experiment, membrane fraction of bovine PACAP receptor cDNA (pBPR-T)-expressed CHO cells; details: 100 pM [125I]-PACAP27, 25° C., 75 minutes, FIG. 35
Experimental: The transformants (CHO cells) cultivated for 3 days after subculture were separated using 0.2 mM EDTA/phosphate buffer, and suspended in 10 mM sodium carbonate buffer supplemented with 1 mM EDTA, 0.5 mM phenylmethylsulfonyl fluoride (PMSA), 20 μg/ml leupeptin, 4 μg/ml E-64 and 1 μg/ml pepstatin. The suspended cells were disrupted with a Polytron homogenizer (Kinematica). The disrupted product was centrifuged with a high speed cooling centrifuge (CR26H, Roter RR18, Hitachi, Ltd.) at 3,000 rpm for 10 minutes to obtain a supernatant. The resulting supernatant was further ultracentrifuged with an ultracentrifuge (SCP70H, Roter RPZ35T, Hitachi, Ltd.) at 30,000 rpm for 60 minutes to obtain pellets. The resulting pellets were suspended in a buffer [20 mM Tris-HCl (pH 7.4), 0.25 M sucrose, 2 mM EDTa, 0.5 mM PMSF, 20 μg/ml leupeptin and 1 μg/ml pepstatin] to prepare a membrane fraction suspension.
Bound ligands were separated from free ligands through a glass fiber filter. […] The binding was examined with a a γ-ray counter. The dissociation constant and the maximum binding were examined by Scatchard plot analysis (FIG. 34).

[5] = molecular target: T1, Bovine PACAP receptor protein; assay: Intracellular inositol phosphate of bovine PACAP receptor cDNA-expressed CHO cells; format: cell-based; details: 37° C., 20 minutes, FIG. 37
Experimental: The pathway of signal transmission of inositol phosphate well known as the pathway of signal transmission together with cyclic AMP was examined. […] One hundred microliters of 20% perchloric acid was added thereto to stop the reaction, and intracellular inositol phosphate was extracted. The extract was neutralized with 1.5 M KOH. All inositol phosphate was separated from free inositol by the use of ion exchange chromatography (AGI-X8, Bio RAD). Thereafter, inositol phosphate was eluted with 1 M ammonium formate/0.1 M formic acid, and the amount of inositol phosphate was measured with a scintillation counter.

[6] = molecular target: T2, human PACAP receptor protein; assay: Competitive inhibition experiment, membrane fraction of human PACAP receptor-expressed CHO-K1 cells; format: binding; details: FIG. 47
Experimental: as §1

[7] = test system: PACAP receptor; details: unlabeled peptide, tissue membrane fraction; cited from earlier work
[8] = molecular target: T4, rat PACAP receptor protein Type I-A (pRPR3-A) (Rattus norvegicus, UniProt P32215); assay: Competitive binding with [125I]-PACAP27, membrane fraction of pRPR3-A-introduced CHO cells; details: 100 pM [125I]-PACAP27, 25° C., 1 hour, FIG. 40 (A)
T4 construct: pRPACAPR46 and pRPACAPR5 were recombined at the BamHI site to prepare pRPACAPR46-5 having a complete translation frame; expressed in transfected cells; host or cells: CHO cells, pRPR3-A (pRc/CMV); clone A12 for cAMP
T4 sequence (P32215 20-467 isoform P32215-5 limits assumed): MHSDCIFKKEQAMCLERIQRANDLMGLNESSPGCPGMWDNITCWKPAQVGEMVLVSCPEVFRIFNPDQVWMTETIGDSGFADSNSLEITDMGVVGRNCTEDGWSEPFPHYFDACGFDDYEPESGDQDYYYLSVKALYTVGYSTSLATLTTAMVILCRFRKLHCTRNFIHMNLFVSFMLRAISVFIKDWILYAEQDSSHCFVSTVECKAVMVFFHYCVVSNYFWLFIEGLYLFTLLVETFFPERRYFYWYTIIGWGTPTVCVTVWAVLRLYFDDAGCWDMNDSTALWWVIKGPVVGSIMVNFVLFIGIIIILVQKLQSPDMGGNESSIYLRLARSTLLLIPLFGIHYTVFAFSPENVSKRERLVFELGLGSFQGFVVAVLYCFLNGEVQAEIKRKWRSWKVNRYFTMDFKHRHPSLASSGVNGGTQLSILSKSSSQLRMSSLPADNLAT
Experimental: (§2) The pRPR3-A-introduced and pRPR4-B-introduced CHO cells obtained in (2) described above were each disrupted in sodium carbonate buffer containing 1 mM EDTA, 0.5 mM PMSF, 20 μg/ml leupeptin, 4 μg/ml E-64 and 1 μg/ml pepstatin with a Polytron homogenizer (Kinematica) to prepare membrane fractions. Using the membrane fractions, complex binding experiments were conducted. For each of the membrane fractions of the pRPR3-A-introduced CHO cells and the pRPR4-B-introduced CHO cells, each of 10 μg and 15 μg (converted to a protein amount) thereof was ligated with. […] The reaction was conducted at 25° C. for 1 hour, and bound ligands were separated from free ligands by filtration through a filter. […] The amount of bound ligands was measured with a γ-counter.

[9] = molecular target: T5, rat PACAP receptor protein Type I-B (pRPR4-B) (Rattus norvegicus, UniProt P32215); assay: Competitive binding with [125I]-PACAP27, membrane fraction of pRPR4-B-introduced CHO cells; details: 100 pM [125I]-PACAP27, 25° C., 1 hour, FIG. 40 (B)
T5 construct: two kinds of complete primary structures of rat PACAP receptor protein were deduced; expressed in transfected cells; host or cells: CHO cells, pRPR4-B (pRc/CMV); clone B17 for cAMP
T5 sequence (P32215 20-495 isoform P32215-2 limits assumed): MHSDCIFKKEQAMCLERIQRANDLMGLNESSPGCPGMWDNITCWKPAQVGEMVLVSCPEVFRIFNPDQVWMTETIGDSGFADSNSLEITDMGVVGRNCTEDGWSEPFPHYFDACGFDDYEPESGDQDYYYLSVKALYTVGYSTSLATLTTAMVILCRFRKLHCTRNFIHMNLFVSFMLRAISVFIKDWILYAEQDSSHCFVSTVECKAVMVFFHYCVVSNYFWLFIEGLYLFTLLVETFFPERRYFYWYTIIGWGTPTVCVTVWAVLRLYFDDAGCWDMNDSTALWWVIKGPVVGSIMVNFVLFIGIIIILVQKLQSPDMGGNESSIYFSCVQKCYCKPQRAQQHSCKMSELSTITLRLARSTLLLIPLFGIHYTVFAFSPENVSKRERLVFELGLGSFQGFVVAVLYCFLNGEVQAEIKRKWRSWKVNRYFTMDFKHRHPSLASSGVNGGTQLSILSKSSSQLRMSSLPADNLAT
Experimental: as §2

[10] = molecular target: T4, rat PACAP receptor protein Type I-A (pRPR3-A); assay: Intracellular cyclic AMP of rat PACAP receptor cDNA-introduced CHO cells, strain A12; format: cell-based; details: CHO strain A12, 37° C., 40 minutes, 0.5 mM IBMX, FIG. 43
Experimental: (§3) Each 48-well plate for tissue culture was inoculated with each of the cell strains. at a density of 1.0×10^5 cells/well, followed by cultivation for 3 days. The plate was washed twice with Ham's F12 medium supplemented with 0.1% BSA and 0.5 mM IBMX, and 500 μl/well of the same medium was added thereto. […] The supernatant was removed, and extraction was conducted with 100% cold ethanol. The extract was evaporated to dryness with a centrifugal freeze dryer, and redissolved in the buffer attached to an EIA kit for assaying cyclic AMP (Amersham). Then, the amount of cyclic AMP was assayed according to the formulation of the kit.

[11] = molecular target: T5, rat PACAP receptor protein Type I-B (pRPR4-B); assay: Intracellular cyclic AMP of rat PACAP receptor cDNA-introduced CHO cells, strain B17; format: cell-based; details: CHO strain B17, 37° C., 40 minutes, 0.5 mM IBMX, FIG. 43
Experimental: as §3

| Substance | concentration of intracellular cyclic AMP [1] | concentration of intracellular cAMP [2] | reaction with purified PACAP receptor protein in competitive binding experiment [3] | reactivity (competition with [125I]-PACAP27) [4] | concentration of inositol phosphate [5] | competition with [125I]-PACAP27 [6] | inhibition of [125I]PACAP27 binding to the membrane fraction [7] | competition with [125I]-PACAP27 [8] | competition with [125I]-PACAP27 [9] | production of intracellular cyclic AMP [10] | weakness relative to PACAP27 in competitive inhibition [6] | production of intracellular cyclic AMP [11] |
| --- | --- | --- | --- | --- | --- | --- | --- | --- | --- | --- | --- | --- |
| PACAP27 | increased depending on the concentrations | increased depending on the concentrations | reacting | high reactivity | increased depending on the concentrations | competed | inhibited |  |  |  |  |  |
| PACAP38: pituitary adenylate cyclase activating polypeptide consisting of 38 amino acid residues, SEQ ID NO: 46-NH2 |  |  |  |  |  |  | inhibited |  |  |  |  |  |
| Vasoactive intestinal peptide [VIP] |  | little raised | not reacting | low in reactivity |  |  | not inhibited | competition was observed only at a concentration much higher than that of PACAP27 | competition was observed only at a concentration much higher than that of PACAP27 | a concentration much higher than that of the PACAPs was required | 1,000 times | a concentration much higher than that of the PACAPs was required |

Reference: US6399316B1, “PACAP receptor protein, method for preparing said protein, and use thereof” (Takeda Chemical Industries, Ltd., priority 1994, dated 2002)
